In patent US20230092389A1, “UNIT DOSES, AEROSOLS, KITS, AND METHODS FOR TREATING HEART CONDITIONS BY PULMONARY ADMINISTRATION” (InCarda Therapeutics, Inc., priority 2017, published 2023):
Where two headings read alike, the source gives them in different places. Each block holds one compound with its values, some of them ahead of it.

Legend:
physchem = conditions: water
[1] = test system: dogs with induced supraventricular tachycardia; test: Induced supraventricular tachycardia (SVT) model, IT vs IV, anesthetized dogs (Example 2); type: in vivo, dog; conditions: for cardiovascular effect when given by intratracheal instillation: summary of Example 2
Experimental: Supraventricular Tachycardia Model:
A venous catheter was placed in a peripheral vessel (i.e., cephalic) for administration of anesthetic(s). For anesthesia induction, all animals were given a combination of diazepam (˜0.5 mg/kg) and ketamine (˜10 mg/kg) intravenously through this venous catheter. Anesthesia was sustained until completion of the study with an intravenous infusion of pentobarbital (5-15 mg/kg/hr). Following induction, animals were endotracheally intubated and mechanically ventilated (˜12 breaths/min with a tidal volume of 200-300 mL).
Subsequently, a cut-down on a jugular vein permitted the introduction of a pacing lead into the right atrium. Similarly, for arterial pressure monitoring, a solid-state micromanometer catheter (Millar Instruments) was advanced into the aortic root via a cut-down over an artery (e.g., femoral, carotid). Transthoracic electrodes forming ECG lead II was placed. For vehicle/test article delivery, a 4F catheter was introduced through the trachea and wedged into a small airway, and a venous catheter was placed in a peripheral vessel (i.e., cephalic).
Following instrumentation/hemodynamic stabilization (for at least 15 minutes), right atrial pacing (5-10 V, 40 Hz, 2 ms pulses) was established in order to induce supraventricular tachycardia (SVT); pacing and SVT was sustained throughout the duration of the experiments. Approximately 5 minutes after onset of SVT and while monitoring ECG/arterial pressure continuously, the animals were administered three escalating doses (one at a time) of a test article; each dose was delivered as a bolus (˜3 mL) directly into a small airway through the intratracheal catheter (IT). Following dosing, the heart-rate (HR) and arterial pressure response were monitored for 15 minutes.
Subsequently (once the response to three IT doses had been recorded), hemodynamic recovery was allowed for approximately 30 minutes, and the electrocardiographic/hemodynamic response to the highest test-article dose was re-evaluated; however, for comparison purposes, this dose was delivered intravenously (IV).
Overall, two groups/test-articles were studied, and up to two animals were assigned to each group (n=2/group): one group received esmolol HCL (0.5-1.0 mg/kg, ESM), while the other received adenosine (0.25-1.0 mg/kg, ADN); only one test article was administered to per animal.

[2] = test system: dogs with induced atrial fibrillation; type: in vivo, dog; conditions: for conversion of induced atrial fibrillation to normal sinus rhythm: pulmonary dose 0.25 mg/kg body weight; for cardiovascular effect when given by intratracheal instillation: summary of Example 2
Experimental: Atrial Fibrillation Model: A venous catheter was placed in a peripheral vessel (i.e., cephalic) for administration of anesthetic. […] Following induction, animals were endotracheally intubated and mechanically ventilated (˜12 breaths/minute with a tidal volume of 200-300 mL). Subsequently, a cut-down on a jugular vein permitted introduction of a pacing lead into the right atrium. Transthoracic electrodes forming ECG lead II were placed. For test/vehicle article delivery, a 4F catheter was introduced through the trachea and wedged into a small airway, and a venous catheter was placed in a peripheral vessel (i.e., cephalic). […] Approximately 5 min after administration of this parasympathomimetic was started; the following experiments were performed: […] Observations were made for up to 10 minutes. […] Vehicle was only water.

solubility (physchem): > 90 mg/mL
Mean Arterial Pressure (MAP) ([1]; dog, in vivo, iv, 0.25 mg/kg): dropped significantly in both cases
pH of solution in water (3.5 mg/mL solution): 6.7
appearance of solution (diltiazem hydrochloride 50 mg/ml, flecainide acetate 30 mg/ml in distilled water): clear with no visible particulate matter
Structure (SMILES): COc1ccc([C@@H]2Sc3ccccc3N(CCN(C)C)C(=O)[C@@H]2OC(C)=O)cc1 [diltiazem]
comparison of pulmonary and IV routes ([1]; 0.25 mg/kg (FIGS. 14, 15)): comparable in all aspects
PR interval ([1]; IV or pulmonary, 0.25 mg/kg): prolonged the PR interval
timing of the electrophysiological change ([1]; IV vs pulmonary): comparable between IV and pulmonary
mean arterial blood pressure (MAP) ([2]; dog, in vivo, 0.25 mg/kg): notable drop
PQ interval ([2]; pulmonary dose 0.25 mg/kg): prolonged the PQ interval
heart rate ([2]; pulmonary dose 0.25 mg/kg): slowed down but marginally
conversion of induced atrial fibrillation to normal sinus rhythm ([2]; 0.25 mg/kg): converted the induced atrial fibrillation to normal sinus rhythm
conversion of induced atrial fibrillation to normal sinus rhythm ([2]; listed as diltiazem HCl, 0.25 mg/kg): Afib converting after administration
cardiovascular effect when given by intratracheal instillation [2]: clear cardiovascular effect

Structure (SMILES): Nc1ncnc2c1ncn2[C@@H]1O[C@H](CO)[C@@H](O)[C@H]1O [adenosine]
effect on the heart ([1]; administered via the lung): did not have any effect on the heart
cardiovascular effect when given by intratracheal instillation [1]: clear response was not observed

drop in MAP ([1]; via the lung, any of the doses): did not cause a drop in MAP
Structure (SMILES): COC(=O)CCc1ccc(OCC(O)CNC(C)C)cc1 (stereo not shown) [esmolol]
AV block ([1]; 0.5 mg/kg via the lung (FIGS. 17, 18)): period of AV block induced
AV block ([1]; 0.75 mg/kg via the lung (FIG. 20)): period of AV block induced
PR intervals in the ECG traces ([1]; elevating doses, IT): prolonging the PR intervals
electrophysiological effects ([1]; higher dose 1.0 mg/kg): did not produce the same electrophysiological effects
AV block ([1]; lower doses, via the lung (IT)): 2nd degree AV block
cardiovascular effect when given by intratracheal instillation [1]: probable effect

Structure (SMILES): CN(CCOc1ccc(NS(C)(=O)=O)cc1)CCc1ccc(NS(C)(=O)=O)cc1 [dofetilide]
heart rate ([2]; escalating pulmonary doses of 10-40 mcg/kg body weight): minor reduction in heart rate
effect on induced atrial fibrillation ([2]; pulmonary (IT) administration): marginally slowed the ventricular rate
cardiovascular effect when given by intratracheal instillation [2]: probable effect
